Experimental data from patent US6893830B1, “Method of screening oxysterol activation of LXRα” (The Board of Regents of the University of Texas System, priority 1996, dated 2005).

Tests used:
RXR/LXR heterodimer = RXR/LXR heterodimer activation, dose response in CV-1 cells with TK-LXREx3-LUC; format: cell-based, human; conditions: LXRα expression plasmid, dose-dependent
Procedure: (§1) TK-DR-4-LUC; human vitamin D receptor (VDR)^24, TK-DR^3-LUC; human peroxisome proliferator-activated receptor-α (PPARα)^25, TK-PPREx3-LUC; human farnesol activated receptor (FXR)^11, ΔMTV-EcREx5-LUC; human estrogen receptor (ER)^26, ΔMTV-ERE-LUC; human glucocorticoid receptor (GR)^27, MTV-LUC; Drosophila ecdysone receptor (usp/EcR)^15, ΔMTV-EcREx5-LUC. Cells were treated with ETOH or 6 μM 22(R)-hydroxycholesterol. […] FIG. 3(A)-3(D) Activation of LXRα by 22(R)-hydroxycholesterol in Drosophila (SL-2) cells. […] CV-1 cells were cotransfected with TK-LXREx3-LUC reporter plasmid and expression plasmids containing the indicated receptor combinations, and then treated with the indicated ligands. […] CV-1 cells cotransfected with the LXRα expression plasmid and TK-LXREx3-LUC reporter were treated with 9-cis RA, 22(R)-hydroxycholesterol, or both, at the indicated concentrations.
(§2) In FIG. 3B. Drosophila SL-2 cells were transfected and assayed as previously described^5 in 6-well plates with […] A5C-hLXRα or A5C-hLXRα, 0.5 mg ADH-LXREx2-LUC, 0.2 mg A5C-βGAL and […] PGEM4 carrier DNA per well.
A subset of receptors that function as RXR heterodimers have the unique ability to be activated by their own ligand, the RXR ligand (i.e., 9-cis retinoic acid), or both ligands together^11,17. […]

[1] = biological target: T1, LXR-TR chimera (LXRα N-terminus and DNA binding domain fused to ligand binding domain of TRβ) (Homo sapiens, UniProt P10828+Q13133); conditions: CV-1 cells, TK-LXREx3-LUC
T1 sequence (Q13133+P10828 with tags, fused parts or gaps): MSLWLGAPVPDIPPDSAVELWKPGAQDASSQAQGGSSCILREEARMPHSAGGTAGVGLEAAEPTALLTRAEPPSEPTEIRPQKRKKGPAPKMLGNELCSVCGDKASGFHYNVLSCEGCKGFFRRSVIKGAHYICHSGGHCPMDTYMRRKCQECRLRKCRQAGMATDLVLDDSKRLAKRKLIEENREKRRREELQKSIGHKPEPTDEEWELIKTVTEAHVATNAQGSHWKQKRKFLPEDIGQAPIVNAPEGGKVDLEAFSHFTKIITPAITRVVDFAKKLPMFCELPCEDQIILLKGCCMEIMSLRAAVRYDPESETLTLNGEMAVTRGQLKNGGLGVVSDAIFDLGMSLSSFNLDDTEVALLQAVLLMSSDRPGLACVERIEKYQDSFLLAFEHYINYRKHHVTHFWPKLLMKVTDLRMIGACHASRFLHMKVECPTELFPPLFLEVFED

[2] = tested on: other known nuclear receptors (RXRα, RARα, TRβ, VDR, PPARα, FXR, ER, GR, usp/EcR); assay: Receptor-specific transactivation: cotransfection of other nuclear receptors with their cognate response element reporters in CV-1 cells; format: cell-based, human; conditions: 6 μM 22(R)-hydroxycholesterol
Procedure: as §1, §2

LXRα protein = biological target: T2, LXRα protein (Homo sapiens, UniProt Q13133); assay: Limited protease protection assay (chymotrypsin) of [35S]-labelled Flag-LXRα; format: binding; conditions: increasing concentrations of chymotrypsin, SDS-PAGE and autoradiography
T2 construct: made in house; host or cells: in vitro synthesis (cell-free translation)
T2 sequence (Q13133 1-447): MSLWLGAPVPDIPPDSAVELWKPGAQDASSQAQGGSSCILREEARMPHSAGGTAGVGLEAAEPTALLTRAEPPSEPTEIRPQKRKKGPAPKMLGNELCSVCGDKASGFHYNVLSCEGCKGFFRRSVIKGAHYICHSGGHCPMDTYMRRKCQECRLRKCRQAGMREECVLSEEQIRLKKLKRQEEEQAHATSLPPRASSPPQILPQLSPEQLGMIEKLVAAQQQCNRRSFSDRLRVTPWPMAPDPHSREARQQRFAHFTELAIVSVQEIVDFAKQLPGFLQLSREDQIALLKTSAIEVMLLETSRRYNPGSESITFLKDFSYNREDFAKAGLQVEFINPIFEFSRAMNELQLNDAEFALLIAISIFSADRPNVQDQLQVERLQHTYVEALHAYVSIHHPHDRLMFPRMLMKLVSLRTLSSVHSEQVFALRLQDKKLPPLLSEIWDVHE
Procedure: FIG. 4, Protease protection of LXRα with 22(R)-hydroxycholesterol. [^35S]-labelled LXRα protein was incubated with (A) ethanol (ETOH) control or (B) 22(R)-hydroxycholesterol, subjected to protease digestion with increasing amounts of chymotrypsin, and analyzed by SDS-PAGE and autoradiography.
In vitro synthesized [^35S]-labelled Flag-LXRα protein was subjected to protease digestion with α-chymotrysin. For these studies, LXRα with a Flag epitope fused to the amino terminus was used.
The unavailability of radiolabelled LXRα activators prevents direct ligand binding analysis. To address the possibility that 22(R)-hydroxycholesterol interacts with LXRα, a limited protease protection assay was performed (FIG. 4). In this experiment, several proteolytic fragments were generated when LXRα protein was incubated with increasing concentrations of the protease, chymotrypsin. […] The presence of a specific ligand-protected ˜30 kDa fragment has also been observed during similar analyses with other nuclear receptors. Thus, these protease protection studies support the finding that 22(R)-hydroxycholesterol interacts with LXRα.

CC(C)CC[C@@H](O)[C@@H](C)[C@H]1CC[C@H]2[C@@H]3CC=C4C[C@@H](O)CC[C@]4(C)[C@H]3CC[C@]12C [22(R)-hydroxycholesterol]
maximal induction (RXR/LXR heterodimer): 20 fold
responsiveness of LXR-TR chimera [1]: loses responsiveness
cross-reactivity with other known nuclear receptors (transactivation) [2]: no cross-reactivity
ligand-protected 30 kDa chymotrypsin fragment of LXRα (LXRα protein): consistently observed
